Measurements: article PMC11628855 (Acta Pharmaceutica Sinica. B, 2024)

Target: T1, GacS (12–166)-His (Pseudomonas aeruginosa, UniProt G3XD98)
T1 sequence (G3XD98 12-166): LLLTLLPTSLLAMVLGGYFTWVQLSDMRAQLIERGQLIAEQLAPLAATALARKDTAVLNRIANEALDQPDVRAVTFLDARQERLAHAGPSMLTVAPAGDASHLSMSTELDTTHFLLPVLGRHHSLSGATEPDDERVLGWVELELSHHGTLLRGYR
Assay: microscale thermophoresis
Format: binding

Kd: 12.8 ± 0.68 µM
Structure (SMILES): CCCCCCNC(=O)CNc1nc2ccc(OC)cc2s1 [SN12, N-Hexyl-2-((6-methoxybenzo[d]thiazol-2-yl)amino)acetamide]
